From patent EP0113508A1, “Hydrophobic platinum compounds and their preparation” (Inco Research & Development Center, Inc., priority 1982, dated 1984)

Experiments:
[1] = tested on: L1210 leukemic cells; test: Chemotherapy of mice injected intravenously with L1210 leukemic cells; increase in life span (ILS) versus controls; type: in vivo; conditions: preliminary
From the text: To deliver the water insoluble cis Pt (II) analogues for chemotheraphy, they were encapsulated in sonicated phosphatidylcholine (PC) vesicles. To prepare these PC vesicles, both the cis Pt (II) analogue and PC had to be lyophilized from cyclohexane or benzene to give a dry powder for hydration by an aqueous medium. Simply drying down an organic solution of both the cis Pt (II) analogue and the PC gave unsatisfactory results upon hydration. The lyophilized samples were hydrated with physiological saline and then sonicated at 4°C using a W-375 Branson sonicator, under a nitrogen atmosphere. The sonicated samples were spun at 12,000 x G for 5 minutes to remove any titanium fragments from the sonicator probe and any undispersed lipid. […] Therefore all preparations were passed down a G-50 gel permeation column to separate any free cis Pt (II) from the hydrophobic cis Pt (II) analogue encapsulated in egg PC vesicles had better structural integrity and more uniform size distribution than the same analogues in soy PC vesicles. […] That is, the vesicles containing the cis Pt (II) analogues that had the lowest amounts of free phosphatidic acid, had the best structural stability and smaller size ranges. This is in direct contrast to the effect of phosphatidic acid in PC vesicles in the absence of the cis Pt (II) analogues.
The fractions from the G-50 column containing the encapsulated cis Pt (II) analogues were concentrated by ultrafiltration to the desired concentration for chemotheraphy studies.
Various compounds synthesized and incorporated in liposomal vesicles in the foregoing manner were employed in the chemotherapy of mice. The testing consisted of injections of 10 5 L1210 leukemic cells intravenuously into mice. One day later, a single -intravenous dose of the cis Pt (II) analogue in a sonicated PC vesicle was given. Increase in life span (ILS) was then measured relative to control animals who received only saline or PC vesicles alone as intravenous injections. Data are shown in Table I, together with data on some tests in which samples were not passed through a gel permeation column to remove free cis Pt (II), but an injectable preparation was made by the addition of "Tween" 80.

[2] = Toxicity (LD10) of the cis Pt (II) analogues in PC vesicles; type: in vivo, mice; conditions: passed through G-50 column, preliminary
[3] = Egg PC vesicle, passed through G-50 column, single intravenous dose one day after L1210 cells i.v.
[4] = Egg PC vesicle, passed through G-50 column, single intravenous dose
[5] = Soy PC vesicle, passed through G-50 column, single intravenous dose one day after L1210 cells i.v.
[6] = Soy PC vesicle, passed through G-50 column, single intravenous dose

Substance	% ILS at Optimal Dose [1, 3] [%]	Optimal Dose [1, 4] [mg Pt/kg]	% ILS at Optimal Dose ([1]; Soy PC vesicle, samples not treated by G-50 column and Tween-80 added, single intravenous dose) [%]	LD10 ([2]; Egg PC vesicle) [mg Pt/kg]	% ILS at Optimal Dose [1, 5] [%]	Optimal Dose [1, 6] [mg Pt/kg]	LD10 ([2]; Soy PC vesicle) [mg Pt/kg]
Dioleyl Phosphaditic Acid 1,2 Diaminocyclohexane Cis Pt (II) [Dioleyl phosphatidic acid DAC]	83	39	0	58			
Dipalmitoyl Phosphatidic Acid 1,2 Diaminocyclohexane Cis Pt (II) [Dipalmitoyl phosphatidic acid DAC]	100	39		58			
Egg Phosphaditic Acid 1,2 Diaminocyclohexane Cis Pt (II) [Egg phosphatidic acid DAC]	50	26		>58			
Soy Phosphaditic Acid Bis Cyclohexylamine Cis Pt (II)					16	155	500
Soy Phosphatidic Acid Bis Cyclopentylamine Cis Pt (II)					16	125	125
Soy Phosphatidic Acid Bis Isoamylamine Cis Pt (II)					8	155	345
